Consider nine compounds from patent US10968186B2, “Ascochlorin derivative and use thereof as AMPK activator” (priority 2016, dated 2021).

In brackets after ≈: the same amount, converted by molar mass. Where two headings read alike, the source gives them in different places.

One may read the IC50 as the point on the concentration scale where inhibition reaches its midpoint. Usually solubility stands for the dissolved amount per volume that the medium holds.

Series [1] is described as follows: Stability against human liver microsomes. Conditions: 2 μM compound. It is filed as in vitro ADME. On the procedure: (§1) Determination of Stability Against Mouse and Human Mirosomes
(§2) Pooled human liver microsomes (Cat. 452161; Lot. 23418) were purchased from Corning and pooled male mouse liver microsomes (Cat. M1000; Lot. 1210302) were purchased from Xenotech. Microsomes were stored at −80° C. prior to use. 40 μL of ultra-pure H2O was used instead of NADPH solution in the negative control. The negative control was used to exclude the misleading factor that was resulted from instability of chemical itself. Samples with NADPH were prepared in duplicate. Negative controls were prepared in singlet.
(§3) The reaction was started with the addition of 4 μL of 200 μM compound solution to each master solution to get the final concentration of 2 μM. Verapamil was used as positive control in the assay. Aliquots of 50 μL were taken from the reaction solution at 0, 15, 30, 45 and 60 min. The reaction was stopped by addition of 4 volumes of cold acetonitrile with IS (200 nM imipramine, 200 nM labetalol and 2 μM ketoprofen). Samples were centrifuged at 3,220 g for 40 minutes. Aliquot of […] of the supernatant was mixed with 90 μL of ultra-pure H2O and then was used for LC-MS/MS analysis. Results are shown in Table 3 by indicating remaining % of the test compound after 60 minutes incubation with liver microsomes from human and mouse in the presence of NADPH.
A general note: Microsomes from liver hold many membrane-bound enzymes, among them those of drug oxidation.

Series [2] in a line: Stability against mouse liver microsomes. It is filed as in vitro ADME. To be noted: mouse LM, 2 μM compound, 60 min, NADPH. On the procedure:
as §1, §2, §3

Series [3] has as its system A549. Put plainly: Anti-proliferative activity, CellTiterGlo assay, A549. It is filed as cell-based. To be noted: Homo sapiens; A549, 96 hrs incubation; read-out: Antiproliferative activities IC50, A549. On the procedure:
(§4) The anti-proliferative activities of the compounds against 6 human cancer cell lines were determined by CellTiterGlo assay kit. All cells were obtained from ATCC and cultured as recommended by the vendor. Cells were assayed in exponential growth phase. Sample solution was prepared by 3-fold serial dilution from 30 mM stock for 10 doses in DMSO. Antiproliferative activities were measured by CellTiterGlo assay kit according to the protocol after cells were incubated for 96 hrs in a 37° C., 5% CO2 incubator.
(§5) On the 4th day of incubation, i) 15 μl reagent (CelltiterGlo assay kit) was added per well and plate was shaken (avoiding light) for 2 mins on a plate shaker, ii) the plate was kept (avoiding light) in room temperature for 30 min, and iii) the luminescence value was recorded by Multiplate reader.
(Cellular ATP, detected with luciferase, serves as a proxy for viable cell number.)

The subject of series [4] is HT29. Put plainly: Anti-proliferative activity, CellTiterGlo assay, HT29. It is filed as cell-based. Conditions: Homo sapiens, HT-29; HT29, 96 hrs incubation; read-out: Antiproliferative activities IC50, HT29. On the procedure:
as §4, §5

The test system of series [5] is BxPC-3. Description: Anti-proliferative activity, CellTiterGlo assay, BxPC-3. Conditions: Homo sapiens; BxPC-3, 96 hrs incubation; read-out: Antiproliferative activities IC50, BxPC-3. It is filed as cell-based. On the procedure:
as §4, §5

Series [6] deals with LNCaP. Description: Anti-proliferative activity, CellTiterGlo assay, LNCaP. It is filed as cell-based. To be noted: Homo sapiens, 96 hrs incubation, read-out: Antiproliferative activities IC50, LNCaP. On the procedure:
as §4, §5

For series [7], the system named is MDA-MB-231. Description: Anti-proliferative activity, CellTiterGlo assay, MDA-MB-231. It is filed as cell-based. Conditions: Homo sapiens; MDA-MB-231, 96 hrs incubation; read-out: Antiproliferative activities IC50, MDA-MB-231. On the procedure:
as §4, §5

The test system of series [8] is U87-MG. Description: Anti-proliferative activity, CellTiterGlo assay, U87-MG. It counts as cell-based. Conditions: Homo sapiens, U-87 MG, 96 hrs incubation, read-out: Antiproliferative activities IC50, U87-MG. On the procedure: as §4, §5
A short description of series [9]: Solubility in pH4.0 and pH7.4 phosphate buffer solution. It is filed as physicochemical. Conditions: phosphate buffer (PBS), aqueous buffer, kinetic from dmso stock, 2 hr incubation, 25° C. On the procedure:
1) Preparation of Stock Solutions
Diclofenac was used as positive control in the assay.
2) Procedures for Solubility Determination
This study was performed in duplicate. […] The filtered samples were diluted with methanol.
3) Samples Analyzed by LC-MS/MS

Where [10] appears, read: pH 4.0 phosphate buffer solution, read-out: Solubility, pH 4.0 PBS.
Setting [11] is: pH 7.4 phosphate buffer solution, read-out: Solubility, pH 7.4 PBS.

With `CC(/C=C/[C@@]1(C)[C@H](C)CC/C(=N\O)[C@@H]1C)=C\Cc1c(O)c(/C=N/O)c(C)c(Cl)c1OCF` [Compound 4, 4-chloro-3-(fluoromethoxy)-2-[(2E,4E)-5-[(1R,2R,3E,6R)-3-(hydroxyimino)-1,2,6-trimethylcyclohexyl]-3-methylpenta-2,4-dien-1-yl]-6-[(1E)-(hydroxyimino)methyl]-5-methylphenol], the “Liver microsome stability remaining % after 60 min incubation with NADPH, human LM” value (“Liver microsome stability remaining % … human LM” for short) in [1] amounted to 67%. The “Liver microsome stability remaining % after 60 min incubation with NADPH, mouse LM” value (shortened to “Liver microsome stability remaining % … mouse LM”) in series [2] is given as 47%. Also, the IC50 was determined as 4.3 µM in [3]; 6.4 µM in series [4]; 11.4 µM in series [5]; 4.2 µM in series [6]; 5.1 µM in series [7]; 9.1 µM in [8].
With `COc1c(Cl)c(C)c(/C=N/O)c(O)c1C/C=C(C)/C=C/[C@@]1(C)[C@H](C)CCC(C)(O)[C@@H]1C` (stereo partly drawn) [Compound 7, (E)-3-chloro-6-hydroxy-5-((2E,4E)-5-((1R,2R,6R)-3-hydroxy-1,2,3,6-tetramethylcyclohexyl)-3-methylpenta-2,4-dien-1-yl)-4-methoxy-2-methylbenzaldehyde oxime], the “Liver microsome stability remaining % … human LM” value in series [1] was 71%. Moreover, in series [2], the “Liver microsome stability remaining % … mouse LM” value is reported as 71%. Further, the IC50 in series [3] worked out at 6.5 µM; in series [4], 10 µM; in [5], 12.8 µM; in series [6], 7.2 µM; in series [7], 6.8 µM; in [8], 13.1 µM.
For `CC(/C=C/[C@@]1(C)[C@H](C)CC/C(=N\OCCN2CCOCC2)[C@@H]1C)=C\Cc1c(O)c(C=O)c(C)c(Cl)c1OCF` [Compound 12, 3-chloro-4-(fluoromethoxy)-6-hydroxy-2-methyl-5-[(2E,4E)-3-methyl-5-[(1R,2R,3E,6R)-1,2,6-trimethyl-3-[[2-(morpholin-4-yl)ethoxy]imino]cyclohexyl]penta-2,4-dien-1-yl]benzaldehyde], the IC50 amounted to 2.9 µM in series [3]; 2.8 µM in [4]; 2.3 µM in series [5]; 0.9 µM in series [6]; 5.8 µM in series [7]; 3.6 µM in [8].
As to `CC(/C=C/[C@@]1(C)[C@H](C)CCC(NC2CC2)[C@@H]1C)=C\Cc1c(O)c(C=O)c(C)c(Cl)c1OCF` (stereo partly drawn) [Compound 13, 3-chloro-5-[(2E,4E)-5-[(1R,2R,6R)-3-(cyclopropylamino)-1,2,6-trimethylcyclohexyl]-3-methylpenta-2,4-dien-1-yl]-4-(fluoromethoxy)-6-hydroxy-2-methylbenzaldehyde], the solubility at 2 h turned out to be 18 µM (≈ 8.6 µg/mL) in series [9] (setting [10]) and 0.01 µM (≈ 0.00478 µg/mL) in [9] (setting [11]). Further, the IC50 in [3] stood at 2 µM; in [4], 3.6 µM; in series [5], 2.2 µM; in [6] it was 0.8 µM; in [7], 5.3 µM; in series [8] it was 3 µM.
As for `CO/N=C/c1c(C)c(Cl)c(OC)c(C/C=C(C)/C=C/[C@@]2(C)[C@H](C)CC/C(=N\OCCN(C)C)[C@@H]2C)c1O` [Compound 15, 4-chloro-2-[(2E,4E)-5-[(1R,2R,3E,6R)-3-[[2-(dimethylamino)ethoxy]imino]-1,2,6-trimethylcyclohexyl]-3-methylpenta-2,4-dien-1-yl]-3-methoxy-6-[(1E)-(methoxyimino)methyl]-5-methylphenol], the solubility at 2 h is 54 µM (≈ 28.8 µg/mL) in series [9] (setting [10]) and 0.29 µM (≈ 0.155 µg/mL) in series [9] (setting [11]). In addition, the “Liver microsome stability remaining % … human LM” value in [1] is 88%. Besides, the “Liver microsome stability remaining % … mouse LM” value in [2] stood at 79%. The IC50 is 6.7 µM in series [3]; 7 µM in series [4]; 1.7 µM in series [5]; 4.2 µM in [6]; 4.8 µM in series [7]; 4.4 µM in series [8].
Regarding `CO/N=C/c1c(C)c(Cl)c(OC)c(C/C=C(C)/C=C/[C@@]2(C)[C@H](C)CC/C(=N\OCCN3CCN(C)CC3)[C@@H]2C)c1O` [Compound 17, 4-chloro-3-methoxy-6-[(1E)-(methoxyimino)methyl]-5-methyl-2-[(2E,4E)-3-methyl-5-[(1R,2R,3E,6R)-1,2,6-trimethyl-3-[[2-(4-methylpiperazin-1-yl)ethoxy]imino]cyclohexyl]penta-2,4-dien-1-yl]phenol], the figures for the solubility at 2 h in series [9] (setting [10]) and in series [9] (setting [11]) were 39 µM (≈ 23 µg/mL) and 0.04 µM (≈ 0.0236 µg/mL), respectively. Further, the “Liver microsome stability remaining % … human LM” value in series [1] stood at 76%. Also, the “Liver microsome stability remaining % … mouse LM” value in series [2] was found to be 55%. The IC50 in series [3] worked out at 6.8 µM; in series [4], 5.2 µM; in series [5] it was 1.7 µM; in series [6] it was 4.1 µM; in series [7], 5 µM; in [8], 4.5 µM.
In the case of `CCNC1CC[C@@H](C)[C@](C)(/C=C/C(C)=C/Cc2c(O)c(C=O)c(C)c(Cl)c2OC)[C@H]1C` (stereo partly drawn) [Compound 20, 3-chloro-5-[(2E,4E)-5-[(1R,2R,6R)-3-(ethylamino)-1,2,6-trimethylcyclohexyl]-3-methylpenta-2,4-dien-1-yl]-6-hydroxy-4-methoxy-2-methylbenzaldehyde], the figures for the solubility at 2 h in [9] (setting [10]) and in series [9] (setting [11]) were 186 µM (≈ 83.3 µg/mL) and 0.32 µM (≈ 0.143 µg/mL), respectively. Moreover, the IC50 in [3] is 4.8 µM; in series [4], 2.7 µM; in series [5], 2.3 µM; in series [6], 1.9 µM; in series [7], 4.1 µM; in [8], 2.3 µM.
As for `CCNC1CC[C@@H](C)[C@](C)(/C=C/C(C)=C/Cc2c(O)c(/C=N/OC)c(C)c(Cl)c2OC)[C@H]1C` (stereo partly drawn) [Compound 21, 4-chloro-2-[(2E,4E)-5-[(1R,2R,6R)-3-(ethylamino)-1,2,6-trimethylcyclohexyl]-3-methylpenta-2,4-dien-1-yl]-3-methoxy-6-[(1E)-(methoxyimino)methyl]-5-methylphenol], the solubility at 2 h worked out at 168 µM (≈ 80.2 µg/mL) in [9] (setting [10]) and 0.003 µM (≈ 0.00143 µg/mL) in series [9] (setting [11]). In addition, the “Liver microsome stability remaining % … human LM” value in series [1] turned out to be 100%. For the same compound, in series [2], the “Liver microsome stability remaining % … mouse LM” value worked out at 80%. Also, the IC50 in series [3] is 5.3 µM; in series [4], 5 µM; in series [5] it was 1.7 µM; in series [6] it was 3.8 µM; in series [7], 4.3 µM; in series [8], 3.1 µM.
With `COc1c(Cl)c(C)c(C=O)c(O)c1C/C=C(C)/C=C/[C@@]1(C)[C@H](C)CCC(NC2CC2)[C@@H]1C` (stereo partly drawn) [Compound 22, 3-chloro-5-[(2E,4E)-5-[(1R,2R,6R)-3-(cyclopropylamino)-1,2,6-trimethylcyclohexyl]-3-methylpenta-2,4-dien-1-yl]-6-hydroxy-4-methoxy-2-methylbenzaldehyde], the solubility at 2 h was 29 µM (≈ 13.3 µg/mL) in [9] (setting [10]) and 0.01 µM (≈ 0.0046 µg/mL) in series [9] (setting [11]). The IC50 in series [3] was found to be 1.9 µM; in series [4], 3.8 µM; in series [5] it was 2.7 µM; in series [6] it was 1.1 µM; in series [7] it was 6 µM; in series [8], 3.2 µM.
